# Experimental data from US11072632B2, “Inhibitors of 17β-HSD1, 17β-HSD3 and 17β-HSD10” (UNIVERSITÉ LAVAL, priority 2011, dated 2021).
# “And” between values parts separate entries of the source, which are not always exact repeats. Equal values may be shown once. Read-outs that look alike come from different tables or passages of the source.
# Tests used:
# [1] = test system: ovariectomized (OVX) mice; assay: In vivo estrogenic activity (uterotrophic assay) in OVX mice; parameters: species or system mouse; conditions: for increase in uterine weight vs. control group: 100 μg/kg s.c. BID; for increase in uterine weight vs. control group / uterine weight: 7 days; for uterine weight: s.c. BID
# Protocol: The mice were fed rodent chow and tap water ad libitum. The animals were ovariectomized (OVX) under isoflurane-anaesthesia via bilateral flank incisions and randomly assigned to groups (5 animals by group). Mice in the OVX control group received the vehicle alone (8% ethanol-0.4% methylcellulose) during the 7-day period. The possible estrogenic activity of tested compounds was evaluated after their administration by subcutaneous (s.c.) injection [1, 10 and 100 μg/kg, s.c., twice daily (BID)] as suspension in 8% ethanol-0.4% methylcellulose to OVX female mice for 7 days. On day 8, the mice were sacrificed by cervical dislocation. The uteri and vagina were rapidly removed, freed from fat and connective tissue and weighed. Results are the means±SEM of 5 mice per group.
# [2] = target: T1, 17β-HSD10 (Homo sapiens, UniProt Q99714); assay: Inhibition of 17β-HSD10 in stably transfected HEK-293 whole cells (E2 into E1); format: cell-based
# T1 construct: expressed in transfected cells
# T1 sequence (Q99714 1-261): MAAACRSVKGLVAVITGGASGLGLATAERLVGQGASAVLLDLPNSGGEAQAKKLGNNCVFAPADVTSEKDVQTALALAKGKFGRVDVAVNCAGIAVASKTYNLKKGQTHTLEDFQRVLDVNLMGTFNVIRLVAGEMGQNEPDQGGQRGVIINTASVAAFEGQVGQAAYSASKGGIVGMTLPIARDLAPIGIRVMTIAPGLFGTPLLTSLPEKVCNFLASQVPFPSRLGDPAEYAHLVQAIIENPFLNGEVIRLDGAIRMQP
# [3] = test system: androgen-sensitive (AR+) Shionogi cells; assay: Proliferative (androgenic) activity on androgen-sensitive Shionogi cells; format: cell-based; conditions: for proliferative (androgenic) effect: 0.1 and 1 μM; for cell proliferation, % of basal: basal (control) 100%
# Protocol: The proliferative (androgenic) activity was determined using androgen-sensitive Shionogi cells following a known literature procedure.^54 Inhibitors and reference compounds were tested at two concentrations (0.1 and 1.0 μM). The androgenicity was reported as % cell proliferation (versus the control). The basal cell proliferation (control) was fixed at 100%.
# [4] = target: T2, 17β-HSD3 (Homo sapiens, UniProt P37058); assay: Inhibition of 17β-HSD3 in intact HEK-293 cells; format: cell-based
# T2 construct: expressed in transfected cells; host or cells: HEK-293 (homogenate)
# T2 sequence (P37058 1-310): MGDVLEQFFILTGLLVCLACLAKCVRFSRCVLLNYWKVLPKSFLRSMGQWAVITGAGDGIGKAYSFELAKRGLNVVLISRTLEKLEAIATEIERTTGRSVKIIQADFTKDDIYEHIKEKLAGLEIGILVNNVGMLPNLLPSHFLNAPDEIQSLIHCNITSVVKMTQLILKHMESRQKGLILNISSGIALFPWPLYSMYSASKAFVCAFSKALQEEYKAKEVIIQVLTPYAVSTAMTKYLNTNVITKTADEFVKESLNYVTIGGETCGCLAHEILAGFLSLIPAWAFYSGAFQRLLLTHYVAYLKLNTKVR
# [5] = target: T2, 17β-HSD3; assay: Inhibition of 17β-HSD3 in homogenated HEK-293 cells; format: biochemical
# [6] = target: T1, 17β-HSD10; conditions: read-out: Km of the enzyme for E2 as a substrate; cited from earlier work
# [7] = test system: ovariectomized (OVX) BALB/c mice; assay: In vivo estrogenicity assay in OVX mice (uterus, vagina weight); parameters: species or system mouse; conditions: OVX mice, s.c., 0.02 μg/mouse/day
# Protocol: Female ovariectomized (OVX) BALB/c mice weighing approximately 20 g were obtained from Charles-River, Inc. (St-Constant, Qc., Canada). The animals were housed 5 per cage. Groups of 5 mice were treated with E1 (0.02 μg in 8% EtOH/92% PG) or 17β-HSD1 inhibitor at 10, 50 and 250 μg (0.1 mL s.c.) daily for 7 days. Animals were killed 24 h after administration of the last dose of compound and uteri and vagina were removed, excised of fat and weighed. Total body weights of mice were also recorded.
# [8] = test system: T-47D cells; assay: Inhibition of E1-stimulated T-47D cell proliferation; format: cell-based, human; conditions: E1 0.1 nM, no inhibitor; control 100%
# Protocol: Quantification of cell growth was determined by using CellTiter 96®Aqueous Solution Cell Proliferation Assay (Promega, Nepean, ON, Canada) following the manufacturer's instructions. T-47D cells were resuspended with the medium supplemented with insulin (50 ng/mL) and 5% dextran-coated charcoal treated FBS rather than 10% FBS to remove remaining hormones. Aliquots (100 μL) of the cell suspension were seeded in 96-well plates (3000 cells/well). After 48 h, the medium was changed with a new one containing an appropriate concentration of products to be tested and was replaced every 2 days. Cells have grown either in absence or presence of the compounds for 7 days. To determine the proliferative (estrogenic) activity, the estrogen-sensitive T-47D cells were grown in absence (basal cell proliferation was fixed as 100%) or presence of compounds to be tested at 0.5 to 10 μM. The potent estrogen E2 was used as a reference control. […] The cell proliferation without E1±inhibitor (control) was fixed as 100%. To determine the potential antiestrogenic activity of inhibitor Compound V, the T-47D (ER^+) cells were grown in the presence of estrogen E2 (0.1 nM) and pure antiestrogen EM-139 (0.5 μM) or inhibitor Compound V (0.5 μM). The cell proliferation without E2 and tested compounds (control) were fixed as 100%.
# [9] = test system: T-47D tumors; assay: Inhibition of E1-stimulated T-47D tumor growth in nude OVX mice (xenograft); format: in vivo, mouse
# Protocol: Female OVX BALB/c athymic nude mice weighing approximately 20 g were obtained from Charles-River, Inc. (St-Constant, Qc., Canada). The animals were housed 5 per cage. […] T-47D tumor growth was stimulated using 0.1 μg of E1 s.c. per mouse per day for 15 days. From day 16, animals with tumors were randomized in function of tumor volume and separated into three groups. Group 1 (control mice) was treated s.c. with 100 μL of vehicle alone (8% EtOH/92% PG) per mouse per day. Group 2 (E1 0.1 μg) was treated with E1 (0.1 μg/day, s.c. per mouse) during 32 days. Group 3 (E1 0.1 μg+Compound V 250 μg) was treated with E1 (0.1 μg/day) and Compound V (250 μg/day) per mouse in a combined s.c. injection for 32 days. The mice were weighed at start and volumes of tumors were determined by external caliper twice a week and the greatest longitudinal diameter (length) and the greatest transverse diameter (width) were determined. Tumor volume based on caliper measurements was calculated by the modified ellipsoidal formula: Tumor volume=½(length×width^2) (Jensen M M, Jorgensen J T, Binderup T, Kjaer A. Tumor volume in subcutaneous mouse xenografts measured by microCT is more accurate and reproducible than determined by 18F-FDG-microPET or external caliper. BMC Med Imaging 2008; 8:16). At the end of the studies the mice were terminally anaesthetized, final body weights and tumor sizes were determined. Uteri and vagina were removed, excised of fat and weighed (Day J M, Foster P A, Tutill H J, Parsons M F, Newman S P, Chander S K, et al. 17beta-hydroxysteroid dehydrogenase type 1, and not type 12, is a target for endocrine therapy of hormone-dependent breast cancer. Int J Cancer 2008; 122:1931-40; Husen B, Huhtinen K, Poutanen M, Kangas L, Messinger J, Thole H. Evaluation of inhibitors for 17beta-hydroxysteroid dehydrogenase type 1 in vivo in immunodeficient mice inoculated with MCF-7 cells stably expressing the recombinant human enzyme. Mol Cell Endocrinol 2006; 248:109-13; Husen B, Huhtinen K, Saloniemi T, Messinger J, Thole H H, Poutanen M: Human hydroxysteroid (17-beta) dehydrogenase 1 expression enhances estrogen sensitivity of MCF-7 breast cancer cell xenografts. Endocrinology 2006; 147:5333-9; Messinger J, Hirvela L, Husen B, Kangas L, Koskimies P, Pentikainen O, et al. New inhibitors of 17beta-hydroxysteroid dehydrogenase type 1. Mol Cell Endocrinol 2006; 248:192-8).
smiles,measurement,setting,value
"C[C@@]12CC[C@@H]3c4ccc(O)cc4CC[C@H]3[C@@H]1CC[C@H]2O [18-epi-17α-E2 (4), (13α,17α)-estra-1(10),2,4-triene-3,17-diol]",increase in uterine weight vs. control group,[1],2.6 fold
"CC1CN(S(=O)(=O)c2ccccc2C(F)(F)F)C(C)CN1CC1(O)CCC2(C)C(CCC3C4CCC(=O)C4(C)CCC32)C1 (stereo not drawn) [Compound 15b, (3α,5α)-3-{[(2ξ,5ξ)-2,5-dimethyl-4-{[2-(trifluoromethyl)phenyl]sulfonyl}piperazin-1-yl]methyl}-3-hydroxyandrostan-17-one]",Inhibition (%) at 1 μM,"[2]; [14C]-E2 (1 μM) into [14C]-E1, intact HEK-293 cells, 1 μM",30%
same,proliferative (androgenic) effect,[3],did not stimulate the proliferation of AR^+ cells
same,Intact cells (%) (0.1 μM),"[4]; Table 3, 0.1 μM",84%
same,IC50,"[4]; intact HEK-293 cells overexpressing 17β-HSD3, [14C]-Δ4-dione 50 nM",6 nM and 5 nM
same,fold better inhibitor than reference compound 5,[4]; ratio of IC50 values,8 fold
same,fold better than unlabelled Δ4-dione used as inhibitor,[4]; ratio of IC50 values,56 fold
same,Homo (%) (0.01 μM),"[5]; Table 3, 0.01 μM",55%
same,Homo (%) (0.1 μM),"[5]; Table 3, 0.1 μM",92%
"C[C@]12CC[C@@H]3c4ccc(O)cc4CC[C@H]3[C@@H]1CC[C@@H]2O [17β-E2 (1), 17β-estradiol]",IC50,[2],> 10000 nM
same,Km,[6],43 µM
same,uterine weight,"[1]; OVX mice, 1 μg/kg",125 mg
same,uterine weight,"[1]; OVX mice, 10 μg/kg",155 mg
same,uterine weight,"[1]; OVX mice, 100 μg/kg",160 mg
"C[C@]12CC[C@@H]3c4ccc(O)cc4CC[C@H]3[C@@H]1CC[C@H]2O [17α-E2 (2), 17α-estradiol]",increase in uterine weight vs. control group,[1],3.6 fold
"C[C@]12CC[C@](O)(Cc3ccccc3)C[C@@H]1CC[C@@H]1[C@@H]2CC[C@]2(C)C(=O)CC[C@@H]12 [CS-213, 3β-benzyl-3α-hydroxy-5α-androstan-17-one, reference compound]","cell proliferation, % of basal",[3]; 0.1 μM,225%
same,"cell proliferation, % of basal",[3]; 1 μM,396%
"CCN(Cc1ccccc1)C[C@@]1(O)CC[C@@]2(C)[C@@H](CC[C@@H]3[C@@H]2CC[C@]2(C)C(=O)CC[C@@H]32)C1 [Compound 7a, (3α,5α)-3{[benzyl(ethyl)amino]methyl}3-hydroxyandrostan-17-one]","cell proliferation, % of basal",[3]; 0.1 μM,292%
same,"cell proliferation, % of basal",[3]; 1 μM,314%
same,inhibition at 0.1 µM,"[4]; HEK293, 1 h, Table 2 (17β-HSD3), 0.1 μM, read-out: Intact cells (%) (0.1 μM)",86%
same,inhibition at 1 µM,"[4]; HEK293, 1 h, Table 2 (17β-HSD3), 1 μM, read-out: Intact cells (%) (1 μM)",94%
same,inhibition at 0.1 µM,"[5]; Table 2 (17β-HSD3), 0.1 μM, read-out: Homo (%) (0.1 μM)",85%
same,inhibition at 1 µM,"[5]; Table 2 (17β-HSD3), 1 μM, read-out: Homo (%) (1 μM)",90%
same,inhibition at 0.01 µM,"[5]; Table 2 (17β-HSD3), [14C]-Δ4-dione 50 nM into [14C]-T, 0.01 μM, read-out: Homo (%) (0.01 μM)",42%
"C[C@]12CC[C@@]3(C[C@@H]1CC[C@@H]1[C@@H]2CC[C@]2(C)C(=O)CC[C@@H]12)CN(Cc1ccccc1)C(=O)O3 [Compound 17a, (3R,5S,8R,9S,10S,13S,14S)-3′-benzyl-10,13-dimethyltetradecahydro-2′H spiro[cyclopenta[α]phenanthrene-3,5′-[1,3]oxazolidine]-2′,17(2H)-dione]",proliferative (androgenic) effect,[3],did not stimulate the proliferation of AR^+ cells
same,inhibition at 0.1 µM,"[4]; HEK293, 1 h, read-out: Intact cells (%) (0.1 μM), Table 4, 0.1 μM",44%
same,inhibition at 0.01 µM,"[5]; read-out: Homo (%) (0.01 μM), Table 4, 0.01 μM",21%
same,inhibition at 0.1 µM,"[5]; read-out: Homo (%) (0.1 μM), Table 4, 0.1 μM",86%
same,inhibition at 1 µM,"[5]; read-out: Homo (%) (1.0 μM), Table 4, 1.0 μM",93%
"C[C@]12CC[C@@H]3c4ccc(O)cc4CC[C@H]3[C@@H]1CCC2=O [Compound E1, estrone, reference compound]",increase in uterine weight compared to OVX-CTR (times),[7],2.5
same,uterine weight,[7],55 mg
same,cell growth induced by E1 alone,[8],250%
same,"tumor size, % of initial size","[9]; E1 0.1 μg/day s.c. alone, 32 days",136%
same,effect on mouse weight,"[9]; mouse, in vivo",no effect
"C[C@@]12CC[C@@H]3c4ccc(O)cc4CC[C@H]3[C@@H]1CC[C@@H]2O [18-epi-17β-E2 (3), (13α,17β)-estra-1(10),2,4-triene-3,17-diol]",increase in uterine weight vs. control group,[1],1.5 fold
same,uterotrophic activity,"[1]; uterus and vagina, OVX mice",no significant uterotrophic activity
